Earlier results, collected in patent US20070065513A1, “Stable lansoprazole formulation” (priority 2003, published 2007).
Read-outs that look alike come from different tables or passages of the source.

- half life (pH 6.5): 18 h
- half life (pH 11): about 300 days
- half-life of degradation (pH values below 4.0): less than 10 minutes
SMILES: COc1ccc2[nH]c([S+]([O-])Cc3ncc(C)c(OC)c3C)nc2c1 (stereo not drawn) [Omeprazole, 5methoxy-2(((4-methoxy-3,5-dimethyl-2-pyridinyl)methyl)sulfinyl)-1H-benzimidazole]
